The record followed here is patent US9526796B2, “Peptide-based in vivo siRNA delivery system” (priority 2010, dated 2016).

Non-standard residues stand in square brackets, D forms with d. Primed or numbered codes have the meaning given here. No end group written: not given here. *: point of attachment. Myristoyl = CCCCCCCCCCCCCC(=O)*; PEG24′ = not defined here; Nle = CCCC[C@H](N)C(=O)O

The subject of one assay is ApoB. Put plainly: Knockdown of endogenous serum ApoB in mice after co-injection of masked melittin delivery peptide and ApoB siRNA-cholesterol conjugate. It is filed as in vivo. The note with it: for percent knockdown: CDM-NAG (5×); for % knockdown: 200 μg siRNA. The procedure:
(§1) RNAi polynucleotide conjugates and masked melittin peptides were synthesized as described above. Six to eight week old mice (strain C57BL/6 or ICR, ˜18-20 g each) were obtained from Harlan Sprague Dawley (Indianapolis Ind.). Mice were housed at least 2 days prior to injection. Feeding was performed ad libitum with Harlan Teklad Rodent Diet (Harlan, Madison Wis.). Mice were injected with 0.2 mL solution of delivery peptide and 0.2 mL siRNA conjugates into the tail vein. For simultaneous injection of delivery peptide and siRNA, the siRNA-conjugate was added to modified peptide prior to injection and the entire amount was injected. The composition was soluble and nonaggregating in physiological conditions. Solutions were injected by infusion into the tail vein.
Mice were fasted for 4 h (16 h for rats) before serum collection by submandibular bleeding. For rats blood was collected from the jugular vein. Serum ApoB protein levels were determined by standard sandwich ELISA methods. Briefly, a polyclonal goat anti-mouse ApoB antibody and a rabbit anti-mouse ApoB antibody (Biodesign International) were used as capture and detection antibodies respectively. An HRP-conjugated goat anti-rabbit IgG antibody (Sigma) was applied afterwards to bind the ApoB/antibody complex. Absorbance of tetramethyl-benzidine (TMB, Sigma) colorimetric development was then measured by a Tecan Safire2 (Austria, Europe) microplate reader at 450 nm.
Melittin was reversibly modified with CDM-NAG as described above. The indicated amount of melittin was then co-injected with the 200 μg ApoB siRNA-cholesterol conjugate. Effect on ApoB levels were determined as described above.
Melittin was reversibly modified with CDM-NAG as described above. The indicated amount of melittin was then co-injected with 50 μg ApoB siRNA-cholesterol conjugate. Effect on ApoB levels were determined as described above.
Melittin was reversibly modified with CDM-NAG (5×) as described above. The indicated amount of melittin was then co-injected with the indicated amount of ApoB siRNA-cholesterol conjugate. Effect on ApoB levels were determined as described above.
Melittin was reversibly modified with the indicated amount of CDM-NAG as described above. 50 μg melittin was then co-injected with the 100 μg ApoB siRNA-cholesterol conjugate. Effect on ApoB levels were determined as described above.
Melittin peptides having the indicated sequence were reversibly modified with CDM-NAG (5×) as described above. The indicated amount of melittin was then co-injected with the indicated amount of ApoB siRNA-cholesterol conjugate. Effect on ApoB levels were determined as described above.
Melittin peptides containing the indicated PEG amino terminal modifications were synthesized as described above. The PEG amino terminal modified melittin peptides were then reversibly modified with 5×CDM-NAG as described above. The indicated amount of Melittin was then co-injected with the 100-200 μg ApoB siRNA-cholesterol conjugate. Effect on ApoB levels were determined as described above. Addition of PEG less than 5 kDa in size decreased toxicity of the melittin peptides.

The subject of another assay is Factor VII. The experiment in a line: Knockdown of plasma Factor VII activity in rats after co-injection of CDM-NAG masked melittin and cholesterol-Factor VII siRNA. It is filed as in vivo. The note with it: 5× CDM-NAG, 3 mg/kg cholesterol-Factor VII siRNA. The procedure:
as §1
Wistar Han rats, 175-200 g were obtained from Charles River (Wilmington, Mass.). Rats were housed at least 1 week prior to injection. Injection volume for rats was typically 1 ml.
Plasma samples from animals were prepared by collecting blood (9 volumes) (by submandibular bleeding for mice or from jugular vein for rats) into microcentrifuge tubes containing 0.109 mol/L sodium citrate anticoagulant (1 volume) following standard procedures. F7 activity in plasma is measured with a chromogenic method using a BIOPHEN VII kit (Hyphen BioMed/Aniara, Mason, Ohio) following manufacturer's recommendations. Absorbance of colorimetric development was measured using a Tecan Safire2 microplate reader at 405 nm.
The indicated melittin was reversibly modified with 5×CDM-NAG as described above. The indicated amount of melittin, in mg per kg animal weight, was then co-injected with the 3 mg/kg cholesterol— Factor VII siRNA. Effect on Factor VII levels were determined as described above.

Setting [1] is: 50 μg peptide per mouse, 100 μg siRNA per mouse.
Setting [2] is: 400 μg peptide per mouse, 100 μg siRNA per mouse.
Setting [3] is: 100 μg peptide per mouse, 100 μg siRNA per mouse.
Setting [4] is: peptide 1 (mg per kg animal weight), relative to isotonic glucose injected animals.

In the assay on ApoB (setting [1]), “T11A, T15A, S18A (Seq ID 40): melittin peptide derivative (GIGAILKVLACGLPALIAWIKNKRKQ; melittin-like peptide derive from Apis florea)” registered a percent knockdown of 38%. In turn, “G1H (Seq ID 5): melittin peptide derivative (HIGAILKVLATGLPTLISWIKNKRKQ; melittin-like peptide derive from Apis florea)” showed a percent knockdown in the assay on ApoB (setting [2]) of 78%. The same measure, in the same setting: the value for “G1Y dMel-GFKGC (Seq ID 68): melittin peptide derivative ([dY][dI]G[dA][dI][dL][dK][dV][dL][dA][dT]G[dL][dP][dT][dL][dI][dS][dW][dI][dK][dN][dK][dR][dK][dQ]GFKGC)” was 96%. Regarding “G1L Mel-Cys (Seq ID 63): melittin peptide derivative (LIGAILKVLATGLPTLISWIKNKRKQC; C-terminal cysteine; melittin-like peptide derive from Apis florea)”, in the assay on ApoB (setting [2]), the percent knockdown is recorded as 82%. The substance “N22T Mel-NH2 (Seq ID 15): melittin peptide derivative (GIGAILKVLATGLPTLISWIKTKRKQ-NH2)” returned a percent knockdown with ApoB (setting [1]) of 34%. “G1dI (D form Ile at 1^st position, Seq ID 6): melittin peptide derivative ([dI]IGAILKVLATGLPTLISWIKNKRKQ)”: in the assay on ApoB (setting [1]), the percent knockdown is on record as 34%. In the case of “myristoyl-CKLK-Mel G1L (Seq ID 111): melittin peptide derivative (Myristoyl-CKLKLIGAILKVLATGLPTLISWIKNKRKQ)”, in the assay with ApoB (80 μg peptide per mouse, 100 μg siRNA per mouse), the percent knockdown turned out to be 96%.

Turning to “QQKKKKIWSILAPLGTTLVKLVAGIC-NH2 [Seq ID 93]”, the percent knockdown in the assay on ApoB (siRNA 20 mg/kg) came out at 70%. In the assay with ApoB (setting [2]), “Mel-Cys (Seq ID 62): melittin peptide derivative (GIGAILKVLATGLPTLISWIKNKRKQC; C-terminal Cys; melittin-like peptide derive from Apis florea)” returned a percent knockdown of 83%.

“G1L, T15C dMel (Seq ID 24): melittin peptide derivative ([dL][dI]G[dA][dI][dL][dK][dV][dL][dA][dT]G[dL][dP][dC][dL][dI][dS][dW][dI][dK][dN][dK][dR][dK][dQ])” returned a percent knockdown in the assay on ApoB (setting [3]) of 95%.

On to “dimethyl-dMel I2Nle, I5Nle, T11C, I17Nle, I20Nle dMel (Seq ID 47): melittin peptide derivative (G[Nle]GA[Nle]LKVLACGLPTL[Nle]SW[Nle]KNKRKQ; also: dimethyl, site not given here, D-amino acids, positions not given here)”, for which, in the assay on ApoB (setting [3]), the percent knockdown turned out to be 78%.

“PEG(5k)-KLK-dMel G1Y (Seq ID 56): melittin peptide derivative ({PEG 5k}-KLK[dY][dI]G[dA][dI][dL][dK][dV][dL][dA][dT]G[dL][dP][dT][dL][dI][dS][dW][dI][dK][dN][dK][dR][dK][dQ])” gave a percent knockdown with ApoB (300 μg peptide per mouse, 100 μg siRNA per mouse) of 72%. As to “GIGAILKVLATGLPTLISWIKNKRKQ (listed as Apis florea) [Seq ID 1, Apis florea melittin]”, the “% knockdown” value in the assay with ApoB (5× CDM-NAG, 100 μg peptide, relative to isotonic glucose injected animals) is reported as 25%; in the assay with ApoB (5× CDM-NAG, 200 μg peptide), 51%; with ApoB (5× CDM-NAG, 400 μg peptide) it was 78%; with ApoB (5× CDM-NAG, 800 μg peptide), 87%; in the assay with ApoB (5× CDM-NAG, 1200 μg peptide) it was 94%; in the assay with ApoB (5× CDM-PEG, 800 μg peptide, relative to isotonic glucose injected animals), 0%. Besides, the percent knockdown is recorded as 90% with ApoB (amount in column 'siRNA' 200 μg) and 80% in the assay with ApoB (amount in column 'siRNA' 400 μg). Besides, the “Factor VII knockdown” value is 30 with Factor VII (setting [4]), 83 with Factor VII (peptide 3 (mg per kg)), 90 in the assay with Factor VII (peptide 10 (mg per kg)) and 95 with Factor VII (peptide 20 (mg per kg)). “G1L retroMel-KLK-Stearoyl (Seq ID 75): melittin peptide derivative (KLKQKRKNKIWSILTPLGTALVKLIAGIL; also: stearoyl, site not given here)” returned a percent knockdown with ApoB (setting [2]) of 50%. With “G1Y dMel (Seq ID 11): G1Y melittin peptide having D-form amino acids ([dY][dI]G[dA][dI][dL][dK][dV][dL][dA][dT]G[dL][dP][dT][dL][dI][dS][dW][dI][dK][dN][dK][dR][dK][dQ])”, the percent knockdown in the assay on ApoB (100 μg peptide per mouse, 50 μg siRNA per mouse) worked out at 95%. For the substance “G1Y-Mel-NH2 (Seq ID 110): melittin peptide derivative (YIGAILKVLATGLPTLISWIKNKRKQ-NH2)”, in the assay on ApoB (200 μg peptide per mouse, 200 μg siRNA per mouse), the percent knockdown is recorded as 94%.

On to “G1Y, Q26C (Seq ID 32): melittin peptide derivative (YIGAILKVLATGLPTLISWIKNKRKC; melittin-like peptide derive from Apis florea)”, for which the percent knockdown in the assay with ApoB (setting [3]) came to 93%. “YIGAILKVLATGLPTLISWIKNKRKQ (melittin-like peptide derive from Apis florea) [Seq ID 11]”: the results for the “Factor VII knockdown” value with Factor VII (setting [4]) and in the assay on Factor VII (peptide 3 (mg per kg)) were 93 and 97, respectively.

“PEG24-GKLK-Mel G1L (Seq ID 59): melittin peptide derivative ([PEG24′]GKLKLIGAILKVLATGLPTLISWIKNKRKQ)”: the percent knockdown in the assay on ApoB (setting [1]) was determined as 85%. “G1L, I2Nle, I5Nle, I17Nle, I20Nle (Seq ID 44): melittin peptide derivative (L[Nle]GA[Nle]LKVLATGLPTL[Nle]SW[Nle]KNKRKQ)” came in with a percent knockdown in the assay with ApoB (setting [3]) of 99%. In the assay with ApoB (400 μg peptide per mouse, 200 μg siRNA per mouse), “QQRKRKIWSILAPLGTTLVKLVAGIC-(N-PDP-PE)-NH2 (not fully specified (some residues, C-terminus); also: D-amino acids, positions not given here) [PE = dioleolyl-phosphatidyl-ethanolamine]” displayed a percent knockdown of 55%. On to “G1L, K7S (Seq ID 18): melittin peptide derivative (LIGAILSVLATGLPTLISWIKNKRKQ; melittin-like peptide derive from Apis florea)”, for which the percent knockdown in the assay with ApoB (setting [3]) stood at 89%.
